Source: the supplement of paper PMC10307832

Assays:
Assay in all cases: relative viability (nuclei count vs DMSO), 5 days (fraction); higher = more cells survive
[1] = compound: COc1cc2c(Oc3ccc4[nH]c(C)cc4c3F)ncnc2cc1OCCCN1CCCC1 [Cediranib] + Cc1nc(NC(=O)N2CCC[C@H]2C(N)=O)sc1-c1ccnc(C(C)(C)C(F)(F)F)c1 [Alpelisib] (partner 2 µM)
Summary of the method: (§1)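 The day after seeding in 1536-well plates, lung cancer cell lines were treated by pin tool with a single drug, or with a fixed anchor-drug dose together with five library-drug doses (not always all listed) in √10 steps. After 5 days, a combined fix-and-stain solution (final 0.05% Triton X-100, 1% formaldehyde, 1 ug/ml Hoechst) was added. Nuclei counted on 4× images gave relative viability as treated counts over vehicle counts, reported as the median of duplicate plates.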

[2] = compound: Nc1ncn([C@H]2C[C@H](O)[C@@H](CO)O2)c(=O)n1 [Decitabine] + O=C(c1cc(Cc2n[nH]c(=O)c3ccccc23)ccc1F)N1CCN(C(=O)C2CC2)CC1 [Olaparib] (partner 8 µM)
Summary of the method: as §1

[3] = compound: Nc1ncn([C@H]2C[C@H](O)[C@@H](CO)O2)c(=O)n1 [Decitabine] + NC(=O)Nc1cc(-c2cccc(F)c2)sc1C(=O)N[C@H]1CCCNC1 [AZD7762] (partner 0.2 µM)
Summary of the method: as §1

[4] = compound: COc1cc2c(Oc3ccc4[nH]c(C)cc4c3F)ncnc2cc1OCCCN1CCCC1 [Cediranib] + CC1(C)CCC(c2ccc(Cl)cc2)=C(CN2CCN(c3ccc(C(=O)NS(=O)(=O)c4ccc(N[C@H](CCN5CCOCC5)CSc5ccccc5)c(S(=O)(=O)C(F)(F)F)c4)cc3)CC2)C1 [Navitoclax] (partner 0.5 µM)
Summary of the method: as §1

Cell Line | relative viability ([1]; first compound 0.04 µM) | relative viability ([1]; first compound 0.1265 µM) | relative viability ([1]; first compound 0.4 µM) | relative viability ([1]; first compound 1.265 µM) | relative viability ([1]; first compound 4 µM) | relative viability ([2]; first compound 0.04 µM) | relative viability ([2]; first compound 0.1265 µM) | relative viability ([2]; first compound 0.4 µM) | relative viability ([2]; first compound 1.265 µM) | relative viability ([2]; first compound 4 µM) | relative viability ([3]; first compound 0.04 µM) | relative viability ([3]; first compound 0.1265 µM) | relative viability ([3]; first compound 0.4 µM) | relative viability ([3]; first compound 1.265 µM) | relative viability ([3]; first compound 4 µM) | relative viability ([4]; first compound 0.04 µM) | relative viability ([4]; first compound 0.1265 µM) | relative viability ([4]; first compound 0.4 µM) | relative viability ([4]; first compound 1.265 µM) | relative viability ([4]; first compound 4 µM)
NCI-H2347 | 1.15 | 0.997 | 0.919 | 0.975 | 1.12 | 0.528 | 0.578 | 0.469 | 0.464 | 0.424 | 0.734 | 0.67 | 0.69 | 0.398 | 0.433 | 0.886 | 0.754 | 0.748 | 0.831 | 0.891
NCI-H441 | 0.629 | 0.69 |  | 0.638 | 0.781 | 0.151 | 0.219 | 0.157 | 0.128 | 0.136 | 0.422 | 0.428 | 0.287 | 0.259 | 0.254 | 0.466 | 0.63 |  | 0.763 | 0.573
NCI-H1944 | 0.876 | 1.16 | 0.757 | 0.785 | 0.815 | 0.281 | 0.307 | 0.255 | 0.192 | 0.207 | 0.331 | 0.289 | 0.29 | 0.218 | 0.231 | 1.08 | 1.11 | 0.95 | 0.981 | 1.01
NCI-H2405 | 0.815 | 1.07 | 0.631 | 0.77 | 0.758 | 0.613 | 0.467 | 0.374 | 0.313 | 0.312 | 0.814 | 0.902 | 0.977 | 0.501 | 0.431 | 0.766 | 1.01 | 0.79 | 1.11 | 0.838
HCC-15 | 0.961 |  | 0.827 | 0.933 | 0.961 | 0.472 | 0.363 | 0.253 | 0.178 | 0.168 | 1.12 | 0.777 | 0.752 | 0.632 | 0.747 | 0.742 |  | 0.693 | 0.678 | 0.767
